Results reported in BindingDB's records for patent US11401286 (Tetra Discovery Partners, LLC, 2022).

Key:
[1] = biological target: Isoform 7 of cAMP-specific 3',5'-cyclic phosphodiesterase 4D (Human, UniProt Q08499); assay: Kinetic Assay
[2] = biological target: cAMP-specific 3',5'-cyclic phosphodiesterase 4B [S133D] (Human, UniProt Q07343, S133D); assay: Kinetic Assay
Chain of cAMP-specific 3',5'-cyclic phosphodiesterase 4B [S133D] (Q07343 whole entry S133D): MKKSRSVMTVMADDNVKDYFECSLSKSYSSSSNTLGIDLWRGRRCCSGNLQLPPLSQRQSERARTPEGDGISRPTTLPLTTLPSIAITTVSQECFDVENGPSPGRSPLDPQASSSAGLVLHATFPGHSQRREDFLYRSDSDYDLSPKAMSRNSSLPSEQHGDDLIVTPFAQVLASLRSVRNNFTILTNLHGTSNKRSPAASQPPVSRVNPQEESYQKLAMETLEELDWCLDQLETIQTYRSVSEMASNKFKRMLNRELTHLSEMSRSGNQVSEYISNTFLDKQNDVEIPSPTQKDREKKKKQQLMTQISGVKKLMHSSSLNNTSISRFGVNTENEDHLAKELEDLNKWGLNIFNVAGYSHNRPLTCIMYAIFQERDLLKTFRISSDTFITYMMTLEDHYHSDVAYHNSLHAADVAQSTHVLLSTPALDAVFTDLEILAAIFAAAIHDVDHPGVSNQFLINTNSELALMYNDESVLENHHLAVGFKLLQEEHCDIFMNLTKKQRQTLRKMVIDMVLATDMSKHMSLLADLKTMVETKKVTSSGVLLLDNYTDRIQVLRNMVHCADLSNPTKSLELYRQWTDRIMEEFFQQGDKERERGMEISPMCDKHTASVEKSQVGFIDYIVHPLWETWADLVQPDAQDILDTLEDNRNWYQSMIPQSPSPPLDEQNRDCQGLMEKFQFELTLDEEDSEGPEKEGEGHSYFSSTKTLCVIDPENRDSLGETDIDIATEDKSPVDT

Chain of Isoform 7 of cAMP-specific 3',5'-cyclic phosphodiesterase 4D (Q08499 as listed by the source): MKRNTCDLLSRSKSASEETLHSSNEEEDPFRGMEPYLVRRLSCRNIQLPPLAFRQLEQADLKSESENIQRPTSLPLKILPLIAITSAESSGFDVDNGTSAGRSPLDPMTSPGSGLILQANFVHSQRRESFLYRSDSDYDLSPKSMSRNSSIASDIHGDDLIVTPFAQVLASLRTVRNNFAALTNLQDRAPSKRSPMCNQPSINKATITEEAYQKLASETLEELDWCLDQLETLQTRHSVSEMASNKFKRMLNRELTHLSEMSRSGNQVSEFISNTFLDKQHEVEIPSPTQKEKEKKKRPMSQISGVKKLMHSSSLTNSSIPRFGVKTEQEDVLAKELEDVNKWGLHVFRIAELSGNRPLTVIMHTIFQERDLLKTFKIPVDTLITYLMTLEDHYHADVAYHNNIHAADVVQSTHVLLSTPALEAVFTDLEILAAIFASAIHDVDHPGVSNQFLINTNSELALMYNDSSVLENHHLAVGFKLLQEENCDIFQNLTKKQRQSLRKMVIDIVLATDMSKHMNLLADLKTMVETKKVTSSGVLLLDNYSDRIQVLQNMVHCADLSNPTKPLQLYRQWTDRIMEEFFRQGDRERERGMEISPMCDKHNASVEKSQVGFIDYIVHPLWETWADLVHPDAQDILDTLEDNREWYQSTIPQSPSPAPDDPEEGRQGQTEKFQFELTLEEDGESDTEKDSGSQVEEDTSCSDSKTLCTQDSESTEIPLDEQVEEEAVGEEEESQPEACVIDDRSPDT

## Cc1nc(Nc2ccc(CC(=O)O)cc2)nc(-c2ccc(Cl)s2)n1 [US11401286, Example 22]
[1]
  IC50: > 1 µM
[2]
  IC50: > 1 µM

## NC(=O)Cc1ccc(Nc2cc(C3CCCC3)nc3c2CCC3)cc1 [US11401286, Example 247]
[1]
  IC50: > 1 µM
[2]
  IC50: < 1 µM

## N#CC1CCC(c2cc(Nc3ccc(CC(N)=O)cc3)c3c(n2)CCC3)C1 (centres undefined) [US11401286, Example 138]
[1]
  IC50: > 1 µM
[2]
  IC50: < 1 µM

## OCCc1ccc(Nc2cc(-c3cccc(Cl)c3)nc3c2CCC3)cn1 [US11401286, Example 90]
[1]
  IC50: > 1 µM
[2]
  IC50: > 1 µM

## CCc1c(C)nc(-c2ccc(Cl)s2)nc1Nc1ccc(Cn2nccn2)cc1 [US11401286, Example 300]
[2]
  IC50: < 1 µM
